In brackets after ≈: the same amount, converted by molar mass. Structures can show the parent of a compound that is named as a salt.
System: not given
Experiment: not given
Details: cited from earlier work

Compound | solubility in water
CCCSc1ccc2nc(NC(=O)OC)[nH]c2c1 [albendazole] | insoluble
COc1ccc2[nH]c([S+]([O-])Cc3ncc(C)c(OC)c3C)nc2c1 (stereo not drawn) [omeprazole] | 0.359 mg/mL (≈ 1040 µM)
C=CCNC1=C2C[C@@H](C)C[C@H](OC)[C@H](O)[C@@H](C)/C=C(\C)[C@H](OC(N)=O)[C@@H](OC)/C=C\C=C(/C)C(=O)NC(=CC1=O)C2=O [17-AAG] | 0.1 mg/mL (≈ 171 µM)
CO[C@H]1C[C@@H]2CC[C@@H](C)[C@@](O)(O2)C(=O)C(=O)N2CCCC[C@H]2C(=O)O[C@H]([C@H](C)C[C@@H]2CC[C@@H](OC(=O)C(C)(CO)CO)[C@H](OC)C2)CC(=O)[C@H](C)/C=C(\C)[C@@H](O)[C@@H](OC)C(=O)[C@H](C)C[C@H](C)/C=C/C=C/C=C/1C [temsirolimus] | 0.02 mg/mL (≈ 19.4 µM)
O=C(O)COC(=O)Cc1ccccc1Nc1c(Cl)cccc1Cl [aceclofenac] | insoluble
CC(C)(C)NC(=O)[C@H]1CC[C@H]2[C@@H]3CC[C@H]4NC(=O)C=C[C@]4(C)[C@H]3CC[C@]12C [finasteride] | 0.0117 mg/mL (≈ 31.4 µM)
COc1cc([C@@H]2c3cc4c(cc3[C@@H](O[C@@H]3O[C@@H]5CO[C@@H](C)O[C@H]5[C@H](O)[C@H]3O)[C@H]3COC(=O)[C@H]23)OCO4)cc(OC)c1O [etoposide] | 0.2 mg/mL (≈ 340 µM)

System: UQ-deficient cells (Mclk1 KO or DKO cells)
Experiment: Screening for compounds that increase survival or respiration of UQ-deficient cells
Format: cell-based, mouse
Details: not given
Text: Four different screening methods were developed. The screening methods 1 to 3 are based on rescue-of-lethality in glucose-free galactose-containing media. The presence of galactose instead of glucose forces the cells to rely on oxidative phosphorylation for energy production. Screening method 4 is based on rescue of respiration, implying that processes immediately dependent on UQ have been rescued. Libraries of small molecules were screened for compounds and/or agents that increase survival of UQ-deficient cells (e.g., Mclk1 KO or DKO cells) in standard or modified galactose media depending on the screen settings.
The screen uses cells lacking UQ (e.g., Mclk1 KO cells) and consists of three key steps: • 1) Day 0: preparation of Mclk1 KO cells in 96-well plates in standard (glucose-containing) culture medium. • 2) Day 1: changing to glucose-free galactose-containing medium and adding compounds to be screened at a concentration of approximately 10 μM. • 3) Day 4 to 6: following 3 to 5 days of incubation with the compound to be screened, media were removed and cell viability was assayed by resazurin reduction assay.
The screen also uses cells lacking UQ biosynthesis (e.g., DKO cells) and its protocol is essentially the same as the galactose-only screen except that in step 2, a minimal amount of UQ10 is added into the galactose screening media at a concentration at which the added UQ10 is insufficient by itself to support survival.
The screen uses Mclk1 SKO cells and its protocol is essentially the same as the galactose-only screen except that in step 2, the screening medium is added with 2,4-DHB at a concentration that allows the KO cells to restore some UQ biosynthetic ability but not sufficiently to allow for a level of UQ production that is sufficient for respiration-dependent growth. Thus, under these conditions a compound that can boost the overall level of UQ biosynthesis might allow the cells to make enough UQ to survive in a respiration-dependent medium. Such a screen can identify compounds that boost UQ biosynthesis at any level, including at the level of gene expression.
This screening approach aims to directly identify compounds that can boost mitochondrial respiratory chain activity in respiration-deficient cells. […] For this, cells were seeded into XF24 V7 culture plates and treated with testing compounds for 1 to 2 days before a treatment effect on cellular respiration is measured using the Seahorse XF-24e Flux Analyzer. The XF assay was the same as above described except galactose (10 mM) rather glucose was used as the sugar source to increase respiration rate and thus assay sensitivity.

Compound | identified by the screening methods as useful for UQ deficiency
C[C@]12C=CC(=O)C=C1CC[C@@H]1[C@@H]2[C@@H](O)C[C@@]2(C)[C@H]1CC[C@]2(O)C(=O)CO [prednisolone] | identified
CC(=O)OCC(=O)[C@@]1(O)CC[C@H]2[C@@H]3CCC4=CC(=O)C=C[C@]4(C)[C@H]3[C@@H](O)C[C@@]21C [prednisolone acetate] | identified
Nc1nc(N)c2nc(-c3cccc(O)c3)cnc2n1 [TG100713] | identified
CCC(=O)O[C@]1(C(=O)SCF)[C@H](C)C[C@H]2[C@@H]3C[C@H](F)C4=CC(=O)C=C[C@]4(C)[C@@]3(F)[C@@H](O)C[C@@]21C [fluticasone propionate] | identified
CC1(C)O[C@@H]2C[C@H]3[C@@H]4C[C@H](F)C5=CC(=O)C=C[C@]5(C)[C@@]4(F)[C@@H](O)C[C@]3(C)[C@]2(C(=O)CO)O1 [fluocinolone acetonide] | identified
CCOC(=O)O[C@]1(C(=O)OCCl)CC[C@H]2[C@@H]3CCC4=CC(=O)C=C[C@]4(C)[C@H]3[C@@H](O)C[C@@]21C [ioteprednol etabonate] | identified
CC(C)C[C@H](NC(=O)CNC(=O)c1cc(Cl)ccc1Cl)B(O)O [MLN2238] | identified
CC1(C)O[C@@H]2C[C@H]3[C@@H]4CCC5=CC(=O)CC[C@]5(C)[C@@]4(F)[C@@H](O)C[C@]3(C)[C@]2(C(=O)CCl)O1 [halcinonide] | identified
CC(C)n1nc(-c2cc3cc(O)ccc3[nH]2)c2c(N)ncnc21 [PP242] | identified
CCc1c2c(nc3ccc(OC(=O)N4CCC(N5CCCCC5)CC4)cc13)-c1cc3c(c(=O)n1C2)COC(=O)[C@]3(O)CC [irinotecan] | identified
CC1(C)O[C@@H]2C[C@H]3[C@@H]4CCC5=CC(=O)C=C[C@]5(C)[C@H]4[C@@H](O)C[C@]3(C)[C@]2(C(=O)CO)O1 [desonide] | identified
CC(=O)OCC(=O)[C@@]12N=C(C)O[C@@H]1C[C@H]1[C@@H]3CCC4=CC(=O)C=C[C@]4(C)[C@H]3[C@@H](O)C[C@@]12C [deflazacort] | identified
C[C@@H]1C[C@H]2[C@@H]3CCC4=CC(=O)C=C[C@]4(C)[C@@]3(Cl)[C@@H](O)C[C@]2(C)[C@@]1(OC(=O)c1ccco1)C(=O)CCl [mometasone furoate] | identified
C[C@]12CCC(=O)C=C1CC[C@@H]1[C@@H]2[C@@H](O)C[C@@]2(C)[C@H]1CC[C@]2(O)C(=O)CO [hydrocortisone] | identified
CNC1CCCN(c2c(F)cc3c(=O)c(C(=O)O)cn(C4CC4)c3c2OC)C1 (stereo not drawn) [balofloxacin] | identified
C[C@@H]1COCCN1c1cc(C2(S(C)(=O)=O)CC2)nc(-c2cccc3[nH]ccc23)n1 [AZ20] | identified

Compound | identified by the screening methods as useful for UQ deficiency
CNC(=O)c1cccc(-c2ccc3c(N4CCOC[C@@H]4C)nc(N4CCOC[C@@H]4C)nc3n2)c1 [AZD2014] | identified
CC1(C)CCC(CN2CCN(c3ccc(C(=O)NS(=O)(=O)c4ccc(NCC5CCOCC5)c([N+](=O)[O-])c4)c(Oc4cnc5[nH]ccc5c4)c3)CC2)=C(c2ccc(Cl)cc2)C1 [ABT-199] | identified
CCc1c2c(nc3ccc(O)cc13)-c1cc3c(c(=O)n1C2)COC(=O)[C@]3(O)CC [SN-38] | identified
CCCCC(=O)O[C@]1(C(=O)CO)[C@@H](C)C[C@H]2[C@@H]3CCC4=CC(=O)C=C[C@]4(C)[C@@]3(F)[C@@H](O)C[C@@]21C [betamethasone valerate] | identified
CC(=O)O[C@]1(C(C)=O)CC[C@H]2[C@@H]3C[C@H](C)C4=CC(=O)C=C[C@]4(C)[C@@]3(F)[C@@H](O)C[C@@]21C [fluorometholone acetate] | identified
CCC(=O)OCC(=O)[C@@]1(OC(=O)CC)[C@@H](C)C[C@H]2[C@@H]3CCC4=CC(=O)C=C[C@]4(C)[C@@]3(F)[C@@H](O)C[C@@]21C [betamethasone dipropionate] | identified
Nc1cc(C(F)(F)F)c(-c2cc(N3CCOCC3)nc(N3CCOCC3)n2)cn1 [BKM120, buparlisib] | identified
CNC(=O)Nc1ccc(-c2nc(N3CC4CCC(C3)O4)c3cnn(C4CCC5(CC4)OCCO5)c3n2)cc1 [WYE-125132] | identified
C[C@]12C=CC(=O)C=C1CC[C@H]1[C@@H]3C[C@@H](O)[C@](O)(C(=O)CO)[C@@]3(C)C[C@H](O)[C@@]12F [triamcinolone] | identified
CC1=C(CC(=O)O)c2cc(F)ccc2/C1=C\c1ccc([S+](C)[O-])cc1 (stereo not drawn) [sulindac] | identified
Caspofungin acetate | identified
COc1cc2c(cc1Cc1cccc(Cl)c1F)c(=O)c(C(=O)O)cn2[C@H](CO)C(C)C [elvitegravir] | identified
C[C@H]1c2cccc(O)c2C(=O)C2=C(O)[C@]3(O)C(=O)C(C(N)=O)=C(O)[C@@H](N(C)C)[C@@H]3[C@@H](O)[C@@H]21 [doxycycline HCl] | identified
CC(=O)OCC(=O)[C@@]1(O)CC[C@H]2[C@@H]3CCC4=CC(=O)C=C[C@]4(C)[C@@]3(Cl)[C@@H](Cl)C[C@@]21C [dichlorisone acetate] | identified
CS(=O)(=O)N1CCc2c(-c3cnc(N)nc3)nc(N3CCOCC3)nc21 [CH5132799] | identified

Same assay, conditions: DKO cells, minimal UQ10 added

Compound | hit in the UQ supplementation screen (method 2)
Caspofungin acetate | one of the hits
